{
  "source": "paper PMC7239035",
  "about": "(Chemistry, an Asian journal, 2019)",
  "target": "β2AR (human β2 adrenergic receptor) (Homo sapiens, UniProt P07550)",
  "sequence (P07550 whole entry)": "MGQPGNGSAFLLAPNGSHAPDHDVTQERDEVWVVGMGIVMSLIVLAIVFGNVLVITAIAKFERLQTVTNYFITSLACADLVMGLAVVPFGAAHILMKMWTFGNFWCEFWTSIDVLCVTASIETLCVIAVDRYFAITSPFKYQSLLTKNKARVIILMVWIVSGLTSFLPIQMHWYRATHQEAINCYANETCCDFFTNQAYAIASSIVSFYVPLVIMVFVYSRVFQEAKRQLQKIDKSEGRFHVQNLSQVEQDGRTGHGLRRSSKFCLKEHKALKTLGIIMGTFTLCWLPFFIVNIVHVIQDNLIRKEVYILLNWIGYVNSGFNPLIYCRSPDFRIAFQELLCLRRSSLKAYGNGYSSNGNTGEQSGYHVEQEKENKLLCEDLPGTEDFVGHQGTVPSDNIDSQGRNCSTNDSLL",
  "test": "radioligand binding",
  "details": "labelled compound; antagonist; detergent micelles (PPM or DDM, CMC+0.2 wt%); room temperature",
  "data": [
    {"smiles": "CCCc1ccccc1OCC(O)CNC(C)C", "note": "(stereo not shown) [[3H]-dihydroalprenolol]", "values": [
      {"measurement": "radioligand binding", "result": "receptor ability to bind the radio-labelled antagonist ([^3H]-dihydroalprenolol (DHA))"}
    ]}
  ]
}
